Experimental data as given in US9624182B2, “Compounds as lysophosphatidic acid receptor antagonists” (Amira Pharmaceuticals, Inc., priority 2009, dated 2017).

What follows are compounds tested against T1, human LPA1 (Homo sapiens, UniProt Q92633) (assay: LPA1 calcium flux assay). Conditions: CHO cells expressing human LPA1, stimulated with 10 nM LPA; read-out: HLPA1 Ca Flux IC50.
T1 construct: the full-length cDNA for human LPA1 was obtained by PCR of the reverse transcription reaction; expressed in transfected cells
T1 sequence (Q92633 whole entry): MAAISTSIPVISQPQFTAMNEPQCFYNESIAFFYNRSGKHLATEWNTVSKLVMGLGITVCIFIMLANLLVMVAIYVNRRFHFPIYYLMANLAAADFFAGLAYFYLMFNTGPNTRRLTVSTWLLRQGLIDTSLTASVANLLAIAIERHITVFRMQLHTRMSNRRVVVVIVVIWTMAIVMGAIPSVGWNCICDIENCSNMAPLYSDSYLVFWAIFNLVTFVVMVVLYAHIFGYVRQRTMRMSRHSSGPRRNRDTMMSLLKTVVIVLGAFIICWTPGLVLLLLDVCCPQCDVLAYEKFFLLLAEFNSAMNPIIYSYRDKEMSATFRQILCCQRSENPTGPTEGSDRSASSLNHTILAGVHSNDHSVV
Type: cell-based
Method in brief: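 CHO cells stably expressing cloned human LPA1, serum-starved overnight, loaded with Calcium 4 dye 1 h at 37 °C in HBSS/20 mM Hepes with 0.3% fatty-acid-free HSA. Compounds preincubated 30 min at room temperature, then cells stimulated with 10 nM LPA; intracellular Ca2+ read by fluorescence. IC50 from titration curves.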
For `Cc1noc(-c2ccc(-c3ccc(C4(CC(=O)O)CC4)cc3)cc2)c1NC(C)CCCO` (stereo not drawn) [Compound 1-229, (1-{4′-[4-(4-Hydroxy-1-methyl-butylamino)-3-methyl-isoxazol-5-yl]-biphenyl-4-yl}-cyclopropyl)-acetic acid], the IC50 was > 50 µM. `Cc1noc(-c2ccc(-c3ccc(C4(C(=O)O)CC4)cc3)cc2)c1NC(C)CCCO` (stereo not drawn) [Compound 1-230, 1-{4′-[4-(4-Hydroxy-1-methyl-butylamino)-3-methyl-isoxazol-5-yl]-biphenyl-4-yl}-cyclopropanecarboxylic acid] showed an IC50 of 1 to 50 µM. In the case of `Cc1noc(-c2ccc(-c3ccccc3CC(=O)O)cc2)c1NC(C)CCCO` (stereo not drawn) [Compound 1-231, {4′-[4-(4-Hydroxy-1-methyl-butylamino)-3-methyl-isoxazol-5-yl]-biphenyl-2-yl}-acetic acid], the IC50 is reported as 1 to 50 µM. `Cc1noc(-c2ccc(-c3ccccc3CC(=O)O)cc2)c1NC(C)CCc1ccc2c(c1)OCO2` (stereo not drawn) [Compound 1-232, {4′-[4-(3-Benzo[1,3]dioxol-5-yl-1-methyl-propylamino)-3-methyl-isoxazol-5-yl]-biphenyl-2-yl}-acetic acid] was tested, and the IC50 was > 50 µM. `Cc1noc(-c2ccc(-c3ccc(C4(CC(=O)O)CC4)cc3)cc2)c1NC(C)CCc1ccc2c(c1)OCO2` (stereo not drawn) [Compound 1-233, (1-{4′-[4-(3-Benzo[1,3]dioxol-5-yl-1-methyl-propylamino)-3-methyl-isoxazol-5-yl]-biphenyl-4-yl}-cyclopropyl)-acetic acid] was tested, and the IC50 was < 0.3 µM. `COc1ccc(CC(C)Nc2c(C)noc2-c2ccc(-c3ccc(C4(CC(=O)O)CC4)cc3)cc2)cc1` (stereo not drawn) [Compound 1-236, [1-(4′-{4-[2-(4-Methoxy-phenyl)-1-methyl-ethylamino]-3-methyl-isoxazol-5-yl}-biphenyl-4-yl)-cyclopropyl]-acetic acid] was tested, and the IC50 was 1 to 50 µM. Work on `COc1ccc(CC(C)Nc2c(C)noc2-c2ccc(-c3ccc(C4(C(=O)O)CC4)cc3)cc2)cc1` (stereo not drawn) [Compound 1-237] yielded an IC50 of 1 to 50 µM. `COc1ccc(CC(C)Nc2c(C)noc2-c2ccc(-c3ccccc3CC(=O)O)cc2)cc1` (stereo not drawn) [Compound 1-238, (4′-{4-[2-(4-Methoxy-phenyl)-1-methyl-ethylamino]-3-methyl-isoxazol-5-yl}-biphenyl-2-yl)-acetic acid] was tested, and the IC50 was 1 to 50 µM. `Cc1noc(-c2ccc(-c3ccc(CC(=O)O)cc3)cc2)c1C(O)COCc1cccc(C(F)(F)F)c1` (stereo not drawn) [Compound 1-241, (4′-{4-[1-Hydroxy-2-(3-trifluoromethyl-benzyloxy)-ethyl]-3-methyl-isoxazol-5-yl}-biphenyl-4-yl)-acetic acid] gave an IC50 of 1 to 50 µM. In the case of `Cc1noc(-c2ccc(-c3ccc(CCC(=O)O)cc3)cc2)c1C(O)COCc1cccc(C(F)(F)F)c1` (stereo not drawn) [Compound 1-242, 3-(4′-{4-[1-Hydroxy-2-(3-trifluoromethyl-benzyloxy)-ethyl]-3-methyl-isoxazol-5-yl}-biphenyl-4-yl)-propionic acid], the IC50 is reported as 0.3 to 1 µM. For `Cc1noc(-c2ccc(-c3ccc(C4(CC(=O)O)CC4)cc3)cc2)c1C(O)COCc1cccc(C(F)(F)F)c1` (stereo not drawn) [Compound 1-244, [1-(4′-{4-[1-Hydroxy-2-(3-trifluoromethyl-benzyloxy)-ethyl]-3-methyl-isoxazol-5-yl}-biphenyl-4-yl)-cyclopropyl]-acetic acid], the IC50 was < 0.3 µM. For `Cc1noc(-c2ccc(-c3ccc(C(=O)CCC(=O)O)cc3)cc2)c1C(O)CCCc1ccccc1` (stereo not drawn) [Compound 1-245, 4-{4′-[4-(1-Hydroxy-4-phenyl-butyl)-3-methyl-isoxazol-5-yl]-biphenyl-4-yl}-4-oxo-butyric acid], the IC50 was 1 to 50 µM. Compound `Cc1noc(-c2ccc(-c3ccc(C4(CC(=O)O)CC4)cc3)cc2)c1C(O)CC(C)(C)c1ccccc1` (stereo not drawn) [Compound 1-246, (1-{4′-[4-(1-Hydroxy-3-methyl-3-phenyl-butyl)-3-methyl-isoxazol-5-yl]-biphenyl-4-yl}-cyclopropyl)-acetic acid] has an IC50 of 1 to 50 µM. `COc1ccc(CCC(O)c2c(C)noc2-c2ccc(-c3ccc(C4(CC(=O)O)CC4)cc3)cc2)cc1` (stereo not drawn) [Compound 1-247, [1-(4′-{4-[1-Hydroxy-3-(4-methoxy-phenyl)-propyl]-3-methyl-isoxazol-5-yl}-biphenyl-4-yl)-cyclopropyl]-acetic acid] gave an IC50 of 1 to 50 µM. For `Cc1noc(-c2ccc(-c3ccc(C4(C(=O)O)CC4)cc3)cc2)c1C(O)C(=O)NCCc1ccccc1` (stereo not drawn) [Compound 1-249, 1-{4′-[4-(Hydroxy-phenethylcarbamoyl-methyl)-3-methyl-isoxazol-5-yl]-biphenyl-4-yl}-cyclopropanecarboxylic acid], the IC50 was < 0.3 µM. In the case of `Cc1noc(-c2ccc(-c3ccc(CC4(C(=O)O)CC4)cc3)cc2)c1C(O)CCCc1ccccc1` (stereo not drawn) [Compound 1-250, 1-{4′-[4-(1-Hydroxy-4-phenyl-butyl)-3-methyl-isoxazol-5-yl]-biphenyl-4-ylmethyl}-cyclopropanecarboxylic acid], the IC50 is reported as < 0.3 µM. Compound `Cc1noc(-c2ccc(-c3cccc(CC4(C(=O)O)CC4)c3)cc2)c1C(O)CCCc1ccccc1` (stereo not drawn) [Compound 1-251, 1-{4′-[4-(1-Hydroxy-4-phenyl-butyl)-3-methyl-isoxazol-5-yl]-biphenyl-3-ylmethyl}-cyclopropanecarboxylic acid] has an IC50 of 0.3 to 1 µM. For `Cc1noc(-c2ccc(-c3ccc(C4(C(=O)O)CC4)cc3)cc2)c1C(O)C(=O)NCc1ccccc1` (stereo not drawn) [Compound 1-252, 1-{4′-[4-(Benzylcarbamoyl-hydroxy-methyl)-3-methyl-isoxazol-5-yl]-biphenyl-4-yl}-cyclopropanecarboxylic acid], the IC50 was < 0.3 µM. `Cc1noc(-c2ccc(-c3ccc(C4(C(=O)O)CC4)cc3)cc2)c1C(O)C(=O)N[C@H](C)c1ccccc1` (stereo partly drawn) [Compound 1-253, 1-(4′-{4-[Hydroxy-((R)-1-phenyl-ethylcarbamoyl)-methyl]-3-methyl-isoxazol-5-yl}-biphenyl-4-yl)-cyclopropanecarboxylic acid] was tested, and the IC50 was < 0.3 µM. `CC(=O)NC(CCCc1ccccc1)c1c(C)noc1-c1ccc(-c2ccc(C3(CC(=O)O)CC3)cc2)cc1` (stereo not drawn) [Compound 1-256, (1-{4′-[4-(1-Acetylamino-4-phenyl-butyl)-3-methyl-isoxazol-5-yl]-biphenyl-4-yl}-cyclopropyl)-acetic acid] showed an IC50 of 1 to 50 µM. Work on `Cc1noc(-c2ccc(-c3ccc(C4(C(=O)O)CC4)cc3)cc2)c1C(CCCc1ccccc1)NS(C)(=O)=O` (stereo not drawn) [Compound 1-257, 1-{4′-[4-(1-Methanesulfonylamino-4-phenyl-butyl)-3-methyl-isoxazol-5-yl]-biphenyl-4-yl}-cyclopropanecarboxylic acid] yielded an IC50 of 1 to 50 µM. For `Cc1noc(-c2ccc(-c3ccc(C4(C(=O)O)CC4)cc3)cc2)c1C(O)C(=O)N(C)Cc1ccccc1` (stereo not drawn) [Compound 1-258, 1-(4′-{4-[(Benzyl-methyl-carbamoyl)-hydroxy-methyl]-3-methyl-isoxazol-5-yl}-biphenyl-4-yl)-cyclopropanecarboxylic acid], the IC50 was < 0.3 µM. For `Cc1noc(-c2ccc(-c3ccc(C4(C(=O)O)CC4)cc3)cc2)c1/C=C/S(=O)(=O)Cc1ccccc1` [Compound 1-259, 1-{4′-[3-Methyl-4-((E)-2-phenylmethanesulfonyl-vinyl)-isoxazol-5-yl]-biphenyl-4-yl}-cyclopropanecarboxylic acid], the IC50 was 1 to 50 µM. `Cc1noc(-c2ccc(-c3ccc(C4(C(=O)O)CC4)cc3)cc2)c1C(O)CCCc1cccnc1` (stereo not drawn) [Compound 1-260, 1-{4′-[4-(1-Hydroxy-4-pyridin-3-yl-butyl)-3-methyl-isoxazol-5-yl]-biphenyl-4-yl}-cyclopropanecarboxylic acid] was tested, and the IC50 was < 0.3 µM.
